In patent US20090220435A1, “TIGHT JUNCTION MODULATING PEPTIDE COMPONENTS FOR ENHANCING MUCOSAL DELIVERY OF THERAPEUTIC AGENTS” (priority 2005, published 2009):

Assays:
[1] = system: EpiAirway™ human-derived tracheal/bronchial epithelial cells; experiment: Transepithelial electrical resistance (TER) across EpiAirway epithelial cell layer; assay type: cell-based
[2] = system: EpiAirway™ human-derived tracheal/bronchial epithelial cells; experiment: Cytotoxicity (LDH assay); assay type: cell-based
[3] = Chemical stability of PN159 (stability indicating HPLC); assay type: physicochemical; conditions: pH 9 and/or elevated temperature, 40 to 50° C.
Description: The chemical stability of the PN159 was determined under therapeutically relevant storage conditions. A stability indicating HPLC method was employed. Solutions (50 mM) were stored at various pH (4.0, 7.3, and 9.0) and temperature (5° C., 25° C., 35° C., 40° C., and 50° C.) conditions. Samples at pH 4 contained 10 mM citrate buffer. Samples at pH 7.3 and 9.0 contained 10 mM phosphate buffer. Representative storage stability data (including the Arrhenius plot) are depicted in FIG. 6. […] For example, at 5° C. and pH 4.0 or pH7.3, there was essentially 100% recovery of PN159 for six month storage. […] The pH range of 4.0 to 7.3 and the temperature range of refrigerated to ambient are most relevant for intranasal formulations.
The chemical stability of the PN159 was determined under therapeutically relevant storage conditions. A stability indicating HPLC method was employed. Solutions (50 mM) were stored at various pH (4.0, 7.3, and 9.0) and temperature (5° C., 25° C., 35° C., 40° C., and 50° C.) conditions. Samples at pH 4 contained 10 mM citrate buffer. Samples at pH 7.3 and 9.0 contained 10 mM phosphate buffer. […] For example, at 5° C. and pH 4.0 or pH 7.3, there was essentially 100% recovery of PN159 for six month storage. […]
The chemical stability of the PN159 was determined under therapeutically relevant storage conditions. […]

`CC(C)C[C@H](NC(=O)[C@H](C)NC(=O)[C@H](CCCCN)NC(=O)[C@H](CC(C)C)NC(=O)[C@H](C)NC(=O)[C@H](CC(C)C)NC(=O)[C@H](CCCCN)NC(=O)[C@H](CC(C)C)NC(=O)[C@H](C)NC(=O)[C@H](CC(C)C)NC(=O)[C@@H](N)CCCCN)C(=O)N[C@@H](CCCCN)C(=O)N[C@@H](C)C(=O)N[C@@H](C)C(=O)N[C@@H](CC(C)C)C(=O)N[C@@H](CCCCN)C(=O)N[C@@H](CC(C)C)C(=O)N[C@@H](C)C(N)=O` [PN159] showed a TER reduction ([1]; 1 μM peptide) of 54%, a TER reduction ([1]; 2.5 μM peptide) of 79% and a TER reduction ([1]; 10 μM peptide) of 89%. The TER reduction ([1]; 25 μM peptide) was 94%, the “% T0 TER” value ([1]; 25 μM, 1 h, pH 7) was 7% and the “TER in the presence of galantamine” value ([1]; 40 mg/ml galantamine lactate, 25, 50, 100 μM PN159, pH 5.0) was “reduced TER”. The TER reduction ([1]; PN159 25, 50, 100 μM with 2 mg/ml PTH, pH 4.5) was “more than 80%”, the “Relative TER Decrease” value ([1]; relative to PN159 = 1.0) was 1.0 and the “% Triton-X LDH Release” value ([2]; 25 μM, 1 h) was 31%. For the same compound, the “cytotoxicity (LDH)” value ([2]; 25-100 μM PN159 with 2 mg/ml PTH) was “no significant cytotoxicity”, the LDH15 ([2]; 15 minute treatment at the peptide's optimal concentration) was 0.007 and the LDH60 ([2]; 60 minute treatment at the peptide's optimal concentration) was 0.002. For the same compound, the chemical stability [3] was “rapid deterioration”.
